Laboratory results: PubChem BioAssay AID2045 (NMMLSC, 2009)

Target: Ras-related protein Rab-2A (Canis lupus familiaris) (UniProt P61105)
Assay: Rab2 wildtype GTP-binding inhibitors, SAR follow-up, biochemical, pyrazoline series, Bodipy-FL-GTP, flow cytometry, multiplex (AID 2045)
Conditions: Bead-based flow cytometry, Bodipy-FL-GTP binding to Rab2; Ki calculated from EC50

Chain of Ras-related protein Rab-2A (Canis lupus familiaris) (P61105 whole entry, looked up): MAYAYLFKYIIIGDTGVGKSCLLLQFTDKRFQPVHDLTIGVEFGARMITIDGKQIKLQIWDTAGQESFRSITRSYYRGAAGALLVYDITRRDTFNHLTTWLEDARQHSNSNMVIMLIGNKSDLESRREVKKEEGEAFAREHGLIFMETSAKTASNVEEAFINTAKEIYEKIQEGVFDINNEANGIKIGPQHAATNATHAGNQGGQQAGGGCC

| Ki | Compound |
| --- | --- |
| 0.06 µM | COc1ccc(C2=NN(c3cccc(F)c3)C(c3ccc(OC)cc3)C2)cc1 (configuration not stated) |
| 0.11 µM | COc1ccc(C2=NN(c3ccc(S(N)(=O)=O)cc3)C(c3ccc(OC)cc3)C2)cc1 (configuration not stated) |
